# Measurements as given in patent US12564595B2, “Prophylactic and therapeutic pharmaceutical agent for HIV infectious diseases characterized by comprising combination of integrase inhibitor and anti-HIV agent” (Shionogi & Co., Ltd., priority 2019, dated 2026).
# Assays:
# [1] = test system: HIV mutant strain 1 (E138K/G140S/Q148H/N155H); assay: Test Example 2: resistance evaluation test (HeLa-CD4 reporter), mutant strain 1; format: cell-based; conditions: FC=EC50 of mutant strain/EC50 of wild strain; HeLa-CD4 cells
# Method: (§1) A serial dilution series of test samples in 96-well microplates was prepared (50 […]).
# (§2) 2.5×10^4/mL of HeLa-CD4 cell suspension was dispensed into each of the microplates containing test sample, in the amount of 100 μL/well, and HIV virus liquid (wild strain and mutant strain) was then dispensed in an amount of 50 μL/well. Mixing was performed using a plate mixer and culturing was performed for three days in a CO2 incubator. After removing the cultured supernatant of each well by suction, 100 μL of the cell solution buffer in the reporter measurement kit was dispensed thereto, and freezing was conducted in a refrigerator (−80° C.). The plates frozen in the refrigerator were defrosted at room temperature, then mixed using a plate mixer and centrifuged for 5 min at 1,200 rpm. The supernatant of each well was divided to 96-well microplates (BLACK) in the amount of 20 μL in each case. The chemiluminescence reagent in the reporter assay kit was dispensed in the amount of 100 μL in each case, and, after reacting for about 1 h at room temperature, the amount of luminescence was measured using a MicroBeta TRILUX.
# (§3) The degree of resistance (fold change (FC)) of each mutant strain was also calculated using the following formula. FC=EC50 of mutant strain/EC50 of wild strain (Results)
# (§4) The results of the example compounds relating to formula (I) of (A) are shown below. The […] in respect of mutant strain 1 (E138K/G140S/Q148H/N155H) and the FC in respect of mutant strain 2 (E92Q/E138T/G140S/Q148H) are shown in the Table.
# [2] = test system: HIV mutant strain 2 (E92Q/E138T/G140S/Q148H); assay: Test Example 2: resistance evaluation test (HeLa-CD4 reporter), mutant strain 2; format: cell-based; conditions: FC=EC50 of mutant strain/EC50 of wild strain; HeLa-CD4 cells
# Method: as §1, §2, §3, §4
# [3] = Test Example 8: metabolic stability test; format: in vitro ADME, human
# Method: The extent of metabolization of the compound according to the present invention in the liver was evaluated by reacting commercially available pooled human liver microsomes with the compound according to the present invention for a fixed time and calculating the remaining percentage by comparing the reaction sample with an unreacted sample.
# The reaction (oxidative reaction) was conducted for 0 min or 30 min at 37° C. in the presence of 1 mmol/L of NADPH, in a 0.2 mL buffer solution containing 0.5 mg of human liver microsome protein/mL (50 mmol/L Tris-HCl pH 7.4, 150 mmol/L potassium chloride, 10 mmol/L magnesium chloride). After the reaction, 50 μL of reaction liquid were added to 100 μL of methanol/acetonitrile=1/1 (v/v) solution, mixed, and centrifuged for 15 minutes at 3000 rpm. The compound according to the present invention in the centrifuged supernatant was quantified using LC/MS/MS or solid phase extraction (SPE)/MS; the residual amount of the compound according to the present invention after the reaction was calculated, taking the amount of the compound at the 0 min reaction point as 100%.
# [4] = pooled human liver microsomes, 30 min at 37° C., NADPH, compound concentration 0.5 μmol/L
# [5] = human, microsomes, 0.5 h, 0.5 μmol/L, pH 7.4
SMILES,FC in respect of mutant strain 1 (E138K/G140S/Q148H/N155H) [1],FC in respect of mutant strain 2 (E92Q/E138T/G140S/Q148H) [2],"Remaining percentage [3, 4]","Remaining percentage [3, 5]"
CCN1C(=O)c2c(O)c(=O)c(C(=O)NCc3c(F)cc(F)cc3F)cn2N2CCCC[C@@H]12 [Compound I-016],13,10,88%,–
CCN1C(=O)c2c(O)c(=O)c(C(=O)NCc3ccc(F)cc3F)cn2N2CCCC[C@@]12C [Compound I-024],24,16,92.5%,–
CC(C)N1C(=O)c2c(O)c(=O)c(C(=O)NCc3c(F)cc(F)cc3F)cn2N2C[C@@H]3CC[C@@H](O3)[C@@H]12 [II-002],3.1,7.4,80.2%,–
COC[C@@H]1CC[C@H]2N(C(C)C)C(=O)c3c(O)c(=O)c(C(=O)NCc4ccccc4F)cn3N12 [II-005],4.6,7.7,80.8%,–
CC(C)N1C(=O)c2c(O)c(=O)c(C(=O)NCc3ccccc3F)cn2N2C[C@@H]3CC[C@@H](O3)[C@@H]12 [II-009],5.6,6.4,87%,–
CCN1C(=O)c2c(O)c(=O)c(C(=O)NCc3ccc(F)cc3F)cn2N2C[C@@H]3CCC[C@@H](C3)[C@@H]12 [II-013],6.1,8.7,77.6%,–
CCN1C(=O)c2c(O)c(=O)c(C(=O)NCc3c(F)cc(F)cc3F)cn2N2C[C@@H]3CC[C@@H](C3)[C@@H]12 [II-014],5.7,7.3,74.3%,–
CC(C)N1C(=O)c2c(O)c(=O)c(C(=O)NCc3ccc(F)cc3F)cn2N2C[C@@H]3CC[C@@H](O3)[C@@H]12 [II-016],6.6,9,89.1%,–
C[C@H]1CC[C@H]2N(C)C(=O)c3c(O)c(=O)c(C(=O)NCc4cccc(Cl)c4F)cn3N2C1 [II-019],7.3,7,84.1%,–
CC(C)N1C(=O)c2c(O)c(=O)c(C(=O)NCc3ccc(F)cc3F)cn2N2CCOC[C@@H]12 [II-021],8.1,14,87.5%,–
CN1C(=O)c2c(O)c(=O)c(C(=O)NCc3cccc(Cl)c3F)cn2N2C[C@@H]3CC[C@@H](C3)[C@@H]12 [II-023],9.9,15,74.2%,–
CCN1C(=O)c2c(O)c(=O)c(C(=O)NCc3ccc(F)cc3F)cn2N2[C@H]3COC[C@H]3C[C@@H]12 [II-038],78,110,–,77.2%
CCN1C(=O)c2c(O)c(=O)c(C(=O)NCc3ccc(F)cc3F)cn2N2C[C@H](COC)C[C@@H]12 [II-039],48,62,84.3%,–
CCN1C(=O)c2c(O)c(=O)c(C(=O)NCc3c(F)cc(F)cc3F)cn2N2C[C@@H]3CC[C@@H](O3)[C@@H]12 [II-041],17,28,88.4%,–
CCN1C(=O)c2c(O)c(=O)c(C(=O)NCc3c(F)cc(F)cc3F)cn2N2C[C@@H](C)C[C@@H]12 [II-043],18,17,83.2%,–
CCN1C(=O)c2c(O)c(=O)c(C(=O)NCc3ccc(F)cc3F)cn2N2C[C@@H](COC)C[C@@H]12 [II-056],15,28,94.3%,–
CN1C(=O)c2c(O)c(=O)c(C(=O)NCc3cccc(Cl)c3F)cn2N2C[C@@H]3CC[C@@H](O3)[C@@H]12 [II-058],25,15,97.7%,–
C[C@H]1CC[C@H]2N(C)C(=O)c3c(O)c(=O)c(C(=O)NCc4ccc(Cl)cc4F)cn3N2C1 [II-063],38,25,95.7%,–
CCN1C(=O)c2c(O)c(=O)c(C(=O)NCc3ccc(F)cc3F)cn2N2CC[C@H](C)C[C@@H]12 [II-064],27,22,104%,–
CCN1C(=O)c2c(O)c(=O)c(C(=O)NCc3ccc(F)cc3)cn2N2CCCC[C@@H]12 [II-070],32,36,100%,–
CCN1C(=O)c2c(O)c(=O)c(C(=O)NCc3ccc(F)cc3F)cn2N2[C@H](COC)CC[C@@H]12 [II-084],39,38,97.5%,–
CCN1C(=O)c2c(O)c(=O)c(C(=O)NCc3ccc(F)cc3F)cn2N2C[C@@H]3CC[C@@H](O3)[C@@H]12 [II-088],47,45,101%,–
CN1C(=O)c2c(O)c(=O)c(C(=O)NCc3c(F)cc(F)cc3F)cn2N2CCCC[C@@H]12 [II-089],38,14,105%,–
CN1C(=O)c2c(O)c(=O)c(C(=O)NCc3cccc(F)c3F)cn2N2CCCC[C@@H]12 [II-091],48,17,96.9%,–
CN1C(=O)c2c(O)c(=O)c(C(=O)NCc3cccc(Cl)c3F)cn2N2CCOC[C@@H]12 [II-094],50,27,97.2%,–
CN1C(=O)c2c(O)c(=O)c(C(=O)NCc3cccc(Cl)c3F)cn2N2CCCC[C@@]12C [II-129],44,26,88.6%,–
CN1C(=O)c2c(O)c(=O)c(C(=O)NCc3cccc(Cl)c3F)cn2N2[C@H]3COC[C@H]3C[C@@H]12 [II-132],76,17,–,101%
CC(C)N1C(=O)c2c(O)c(=O)c(C(=O)NCc3c(F)cc(F)cc3F)cn2N2[C@H]3COC[C@H]3C[C@@H]12 [II-133],17,34,–,73.3%
CN1C(=O)c2c(O)c(=O)c(C(=O)NCc3cccc(Cl)c3F)cn2N2C[C@@H]3CCC[C@@H](C3)[C@@H]12 [II-139],18,10,75.4%,–
